# What was measured:
# SNU-16 cells = experiment: Inhibition of FGFR2-dependent cell growth (Cell-titer Glo); format: cell-based; details: Homo sapiens, SNU-16, 72 h, 72 hrs incubation, cell viability, read-out: SNU16 IC50 values
# Protocol: The cell-based effects of FGFR inhibitors were determined by measuring inhibition of FGFR-dependent cell line growth. The cell lines SNU-16 was used for these assays. […] Percent inhibition of cell growth was calculated as a percentage of untreated cell viability. The percent inhibition was plotted as a function of log compound concentration. The IC50 was then calculated for each compound using Prism software from GraphPad.
# [1] = test system: SNU-16 human gastric cancer cell line xenograft; experiment: Human gastric tumor (HGS) xenograft model; format: in vivo, mice; details: day 42 after inoculation, 20/kg of compound (vehicle group 645)
# Protocol: Human Gastric Tumor Model:
# SNU-16 human gastric cancer cell line can be used to generate a xenograft model to determine the effects of a FGFR inhibitor of the present disclosure (test compound) as a single agent treatment to target FGFR-dependent tumor growth. SNU-16 cells are grown in tissue culture as described in Example 2 above. For tumor inoculation, approximately 1×10^7 cells are mixed with Matrigel (1:1) and are implanted into the rear flank of immuno compromised Balb/c nu/nu mice. Tumor-bearing mice are monitored twice weekly in two dimensions using a caliper and the volume expressed in mm^3 using the formula: V=0.5 a×b^2 where a and b are the long and short diameters of the tumor respectively. Once tumor volume reaches a mean average of 175 mm^3 mice are randomized into 3 groups (n=8-10 per group) receiving either vehicle control (0.5% methyl cellulose w/w) or the test compound by oral gavage. Dosing continues for 5-21 days with tumor volumes measured daily or every other day. It is expected that tumor growth will be inhibited in animals treated with the test compound. […] Inhibition of FGFR pathway can be assessed by detection of FGFR auto phosphorylation activity. […] Tumor samples are collected at 8 h or 12 h post the last dosing and FGFR auto phosphorylation activity is determined. […]
SMILES,IC50 (SNU-16 cells),tumor size [1]
"CNc1ncc2cc(-c3cc(OC)cc(OC)c3Cl)c(=O)n(CCc3ccnc(NC(=O)C(C#N)=CC(C)(C)N)c3)c2n1 [Cpd 20 (table 2), 4-amino-N-(4-(2-(6-(2-chloro-3,5-dimethoxyphenyl)-2-(methylamino)-7-oxopyrido[2,3-d]pyrimidin-8(7H)-yl)ethyl)pyridin-2-yl)-2-cyano-4-methylpent-2-enamide]",91.4 nM,
"C=CC(=O)N1CCN(CCCn2c(=O)c(-c3c(Cl)c(OC)cc(OC)c3Cl)cc3cnc(NC)nc32)CC1 [8-(3-(4-acryloylpiperazin-1-yl)propyl)-6-(2,6-dichloro-3,5-dimethoxyphenyl)-2-(methylamino)pyrido[2,3-d]pyrimidin-7(8H)-one]",,55 mm3
"CNc1ncc2cc(-c3cc(OC)cc(OC)c3Cl)c(=O)n(CCc3csc(NC(=O)C(C#N)=CC(C)(C)C)n3)c2n1 [Cpd 67 (table 2), N-(4-(2-(6-(2-chloro-3,5-dimethoxyphenyl)-2-(methylamino)-7-oxopyrido[2,3-d]pyrimidin-8(7H)-yl)ethyl)thiazol-2-yl)-2-cyano-4,4-dimethylpent-2-enamide]",936 nM,
"CNc1ncc2cc(-c3cc(OC)cc(OC)c3Cl)c(=O)n(CCCc3ccc(C=C(C#N)C(=O)NC(C)(C)C)cc3)c2n1 [Cpd 75 (table 2), N-(tert-butyl)-3-(4-(3-(6-(2-chloro-3,5-dimethoxyphenyl)-2-(methylamino)-7-oxopyrido[2,3-d]pyrimidin-8(7H)-yl)propyl)phenyl)-2-cyanoacrylamide]",87.2 nM,

# Reference: patent US10538517B2, “Quinolone derivatives as FGFR inhibitors” (Principia Biopharma, Inc., priority 2015, dated 2020)
